What all share (type): cell-based
One test concerns the target T1, human TLR9 (Homo sapiens, UniProt Q9NR96).
T1 construct: host or cells: HEK-Blue cells (HEK293-derived reporter line)
T1 sequence (Q9NR96 26-1032): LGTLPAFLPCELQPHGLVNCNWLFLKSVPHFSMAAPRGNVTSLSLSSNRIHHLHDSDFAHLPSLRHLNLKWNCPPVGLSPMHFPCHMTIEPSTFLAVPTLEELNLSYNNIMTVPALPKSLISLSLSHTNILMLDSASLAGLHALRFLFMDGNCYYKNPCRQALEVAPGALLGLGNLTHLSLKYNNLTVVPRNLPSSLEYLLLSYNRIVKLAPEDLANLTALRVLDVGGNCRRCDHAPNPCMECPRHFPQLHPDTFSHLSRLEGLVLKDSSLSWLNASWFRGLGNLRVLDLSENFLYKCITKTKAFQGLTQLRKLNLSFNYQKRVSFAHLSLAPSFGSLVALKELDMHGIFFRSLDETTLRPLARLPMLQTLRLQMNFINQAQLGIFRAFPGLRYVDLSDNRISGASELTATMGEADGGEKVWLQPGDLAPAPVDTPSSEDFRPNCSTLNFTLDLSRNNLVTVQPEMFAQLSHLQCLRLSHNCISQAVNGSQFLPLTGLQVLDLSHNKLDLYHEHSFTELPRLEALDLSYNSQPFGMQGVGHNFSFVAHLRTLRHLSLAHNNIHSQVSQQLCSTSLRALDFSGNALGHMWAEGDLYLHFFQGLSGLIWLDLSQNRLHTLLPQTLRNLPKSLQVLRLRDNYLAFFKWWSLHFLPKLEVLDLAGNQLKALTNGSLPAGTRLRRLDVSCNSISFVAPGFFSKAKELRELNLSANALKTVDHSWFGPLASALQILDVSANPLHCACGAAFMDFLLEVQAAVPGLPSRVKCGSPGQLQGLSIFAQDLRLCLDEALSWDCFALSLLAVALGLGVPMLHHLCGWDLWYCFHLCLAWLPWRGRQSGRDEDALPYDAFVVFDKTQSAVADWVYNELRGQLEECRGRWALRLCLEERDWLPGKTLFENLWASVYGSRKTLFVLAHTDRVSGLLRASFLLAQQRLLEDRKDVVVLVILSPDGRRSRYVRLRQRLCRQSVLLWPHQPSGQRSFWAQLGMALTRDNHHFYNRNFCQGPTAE
As to the kind of experiment: TLR9 inhibition reporter assay (HEK-Blue cells, SEAP reporter, ODN2006 stimulation). The settings on record: HEK-Blue cells overexpressing human TLR9, SEAP reporter, ODN2006 5 nM. The procedure, abridged:
(§1)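 HEK-Blue cells overexpressing the receptor, with NF-κB/AP-1-driven SEAP, were pre-treated 30 min at room temperature with compound (0.05 nM–50 μM), then stimulated with gardiquimod 7.5 μM (TLR7), R848 15.9 μM (TLR8) or ODN2006 5 nM (TLR9). SEAP was read after 22 h at 37 °C as percent inhibition.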
For orientation: Reporter assays use an easily measured gene product as a stand-in for the process of interest.

The next test deals with T2, human TLR8 (Homo sapiens, UniProt Q9NR97).
T2 construct: host or cells: HEK-Blue cells (HEK293-derived reporter line)
T2 sequence (Q9NR97 27-1041): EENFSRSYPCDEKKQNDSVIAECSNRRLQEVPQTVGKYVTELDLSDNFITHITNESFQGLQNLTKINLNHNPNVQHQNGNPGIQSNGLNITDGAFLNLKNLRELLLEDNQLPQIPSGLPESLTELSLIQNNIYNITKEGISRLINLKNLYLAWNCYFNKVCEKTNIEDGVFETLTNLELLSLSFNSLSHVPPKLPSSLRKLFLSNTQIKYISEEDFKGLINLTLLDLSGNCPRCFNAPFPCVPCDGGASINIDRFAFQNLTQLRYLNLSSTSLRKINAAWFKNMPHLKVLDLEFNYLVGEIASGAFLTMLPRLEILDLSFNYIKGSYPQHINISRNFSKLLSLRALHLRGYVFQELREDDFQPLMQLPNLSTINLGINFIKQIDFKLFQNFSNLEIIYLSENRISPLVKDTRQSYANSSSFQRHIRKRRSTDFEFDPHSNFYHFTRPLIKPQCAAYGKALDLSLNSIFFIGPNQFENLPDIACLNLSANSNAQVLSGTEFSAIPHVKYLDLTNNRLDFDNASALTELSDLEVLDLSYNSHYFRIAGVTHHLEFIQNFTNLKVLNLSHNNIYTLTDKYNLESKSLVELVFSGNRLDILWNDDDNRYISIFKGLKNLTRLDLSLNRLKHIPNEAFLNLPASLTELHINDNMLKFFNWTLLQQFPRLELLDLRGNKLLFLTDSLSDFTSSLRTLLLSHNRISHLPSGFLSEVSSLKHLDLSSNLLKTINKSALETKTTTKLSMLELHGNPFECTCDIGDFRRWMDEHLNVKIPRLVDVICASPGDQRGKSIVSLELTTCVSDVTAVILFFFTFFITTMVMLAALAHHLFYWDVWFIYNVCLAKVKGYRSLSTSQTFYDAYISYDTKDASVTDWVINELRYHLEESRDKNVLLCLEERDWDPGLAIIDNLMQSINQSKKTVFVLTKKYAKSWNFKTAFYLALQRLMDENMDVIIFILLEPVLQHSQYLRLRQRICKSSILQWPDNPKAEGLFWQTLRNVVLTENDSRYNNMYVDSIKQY
As to the kind of experiment: TLR8 inhibition reporter assay (HEK-Blue cells, SEAP reporter, R848 stimulation). Particulars: HEK-Blue cells overexpressing human TLR8, SEAP reporter, R848 15.9 μM. In short, it runs like this:
as §1

In another test the target is T3, human TLR7 (Homo sapiens, UniProt Q9NYK1).
T3 construct: host or cells: HEK-Blue cells (HEK293-derived reporter line)
T3 sequence (Q9NYK1 27-1049): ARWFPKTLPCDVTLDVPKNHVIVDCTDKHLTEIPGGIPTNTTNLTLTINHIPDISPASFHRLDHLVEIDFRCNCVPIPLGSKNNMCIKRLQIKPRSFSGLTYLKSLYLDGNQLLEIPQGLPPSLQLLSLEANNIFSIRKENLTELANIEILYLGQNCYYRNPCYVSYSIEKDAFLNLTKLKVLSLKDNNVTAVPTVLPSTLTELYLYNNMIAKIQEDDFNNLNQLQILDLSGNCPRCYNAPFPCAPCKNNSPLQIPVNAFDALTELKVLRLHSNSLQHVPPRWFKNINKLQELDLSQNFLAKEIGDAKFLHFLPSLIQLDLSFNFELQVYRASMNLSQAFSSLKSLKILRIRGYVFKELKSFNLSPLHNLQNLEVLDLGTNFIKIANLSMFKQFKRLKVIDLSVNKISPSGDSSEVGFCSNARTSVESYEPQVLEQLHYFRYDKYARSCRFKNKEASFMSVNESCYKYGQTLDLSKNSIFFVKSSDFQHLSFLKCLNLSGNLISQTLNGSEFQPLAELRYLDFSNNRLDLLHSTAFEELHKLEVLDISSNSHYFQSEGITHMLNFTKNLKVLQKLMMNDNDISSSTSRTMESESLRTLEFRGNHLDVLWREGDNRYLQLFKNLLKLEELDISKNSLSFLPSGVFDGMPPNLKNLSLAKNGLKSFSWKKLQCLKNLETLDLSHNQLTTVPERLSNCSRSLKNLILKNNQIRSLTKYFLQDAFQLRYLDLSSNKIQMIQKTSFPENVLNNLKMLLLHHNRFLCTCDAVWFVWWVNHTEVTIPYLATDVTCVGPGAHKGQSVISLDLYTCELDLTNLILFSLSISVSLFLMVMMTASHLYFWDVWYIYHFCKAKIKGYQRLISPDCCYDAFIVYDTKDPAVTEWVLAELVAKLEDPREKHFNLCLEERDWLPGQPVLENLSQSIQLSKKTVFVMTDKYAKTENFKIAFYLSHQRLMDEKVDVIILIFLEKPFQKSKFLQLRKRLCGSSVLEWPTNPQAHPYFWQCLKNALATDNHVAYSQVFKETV
As to the kind of experiment: TLR7 inhibition reporter assay (HEK-Blue cells, SEAP reporter, gardiquimod stimulation). Particulars: HEK-Blue cells overexpressing human TLR7, SEAP reporter, gardiquimod 7.5 μM. The procedure, abridged: as §1

On to `Cc1c(-c2[nH]c3ccc(C4CCN(CC(=O)N(C)C)CC4)cc3c2C(C)C)cn2ccnc2c1Cl` [Example 415, 2-(4-(2-(8-chloro-7-methylimidazo[1,2-a]pyridin-6-yl)-3-isopropyl-1H-indol-5-yl)piperidin-1-yl)-N,N-dimethylacetamide], for which the IC50 was 1000 to 50000 nM against human TLR9, less than 100 nM against human TLR8 and less than 100 nM against human TLR7.
Consider `CC(C)c1c(-c2ccnc3[nH]ncc23)[nH]c2ccc(C3CCN(C(=O)CNCCCN(C)C)CC3)cc12` [Example 575, 2-((3-(dimethylamino)propyl)amino)-1-(4-(3-isopropyl-2-(1H-pyrazolo[3,4-b]pyridin-4-yl)-1H-indol-5-yl)piperidin-1-yl)ethan-1-one], for which the IC50 on human TLR9 is 100 to 1000 nM; against human TLR8, less than 100 nM; against human TLR7 it was less than 100 nM.
Take `Cc1cc(-c2[nH]c3ccc(C4CCN(C(=O)CN5CCC(F)(F)C5)CC4)cc3c2C(C)C)cn2nnnc12` [Example 478, 2-(3,3-difluoropyrrolidin-1-yl)-1-(4-(3-isopropyl-2-(8-methyltetrazolo[1,5-a]pyridin-6-yl)-1H-indol-5-yl)piperidin-1-yl)ethan-1-one]: the results for the IC50 against human TLR9, at human TLR8 and on human TLR7 were greater than 50000 nM, 100 to 1000 nM and less than 100 nM, respectively.
On the same counts, the results for `Cc1cc(-c2[nH]c3ccc(C4CCN(CC(=O)N(C)C)CC4)cc3c2C(C)C)cc2nccn12` [Example 354, 2-(4-(3-isopropyl-2-(5-methylimidazo[1,2-a]pyridin-7-yl)-1H-indol-5-yl)piperidin-1-yl)-N,N-dimethylacetamide] are 100 to 1000 nM, 100 to 1000 nM and 100 to 1000 nM.
On the same counts, the results for `CNCC(=O)N1CCC(c2ccc3[nH]c(-c4cc(F)c5nccn5c4)c(CC(F)F)c3c2)CC1` [Example 545, 1-(4-(3-(2,2-difluoroethyl)-2-(8-fluoroimidazo[1,2-a]pyridin-6-yl)-1H-indol-5-yl)piperidin-1-yl)-2-(methylamino)ethan-1-one] are 100 to 1000 nM, 1000 to 50000 nM and less than 100 nM.
On to `CC(C)c1c(-c2ccc3occc3c2)[nH]c2ccc(C3CCNCC3)cc12` [Example 67, 2-(benzofuran-5-yl)-3-isopropyl-5-(piperidin-4-yl)-1H-indole], for which the IC50 on human TLR9 fell in the range of 1000 to 50000 nM; on human TLR8, 100 to 1000 nM; against human TLR7, 100 to 1000 nM.
Consider `CC(C)c1c(-c2ccnc3[nH]ncc23)[nH]c2ccc(C3CCN(C(=O)C[C@H](C)N)CC3)cc12` [Example 637, (S)-3-amino-1-(4-(3-isopropyl-2-(1H-pyrazolo[3,4-b]pyridin-4-yl)-1H-indol-5-yl)piperidin-1-yl)butan-1-one], for which the IC50 against human TLR9 was 1000 to 50000 nM; against human TLR8, less than 100 nM; on human TLR7, less than 100 nM.
Turning to `CC(C)c1c(-c2cnc3nccn3c2)[nH]c2ccc(C3CCNCC3)cc12` [Example 200, 6-(3-isopropyl-5-(piperidin-4-yl)-1H-indol-2-yl)imidazo[1,2-a]pyrimidine], the IC50 at human TLR9, against human TLR8 and at human TLR7 was 100 to 1000 nM in each case.
Consider `Cc1cn2c(C)cc(-c3[nH]c4ccc(C5CCNCC5)cc4c3C(C)C)cc2n1` [Example 160, 7-(3-isopropyl-5-(piperidin-4-yl)-1H-indol-2-yl)-2,5-dimethylimidazo[1,2-a]pyridine], for which the IC50 against human TLR9, against human TLR8 and at human TLR7 was 100 to 1000 nM each time.
For the compound `CC(C)c1c(-c2ccnc3[nH]ncc23)[nH]c2ccc(C3CCN(C(=O)CCN(C)C)CC3)cc12` [Example 643, 3-(dimethylamino)-1-(4-(3-isopropyl-2-(1H-pyrazolo[3,4-b]pyridin-4-yl)-1H-indol-5-yl)piperidin-1-yl)propan-1-one], the IC50 was 100 to 1000 nM against human TLR9, less than 100 nM against human TLR8 and less than 100 nM against human TLR7.
`COCCN1CCC(c2ccc3[nH]c(-c4cc(OC)n5ncnc5c4)c(C(C)C)c3c2)CC1` [Example 780, 7-(3-isopropyl-5-(1-(2-methoxyethyl)piperidin-4-yl)-1H-indol-2-yl)-5-methoxy-[1,2,4]triazolo[1,5-a]pyridine]: the IC50 at human TLR9 is 1000 to 50000 nM; against human TLR8 it was less than 100 nM; at human TLR7, less than 100 nM.
As for `CNC(=O)CN1CCC(c2ccc3[nH]c(-c4ccn5cnnc5c4)c(C(C)C)c3c2)CC1` [Example 306, 2-(4-(2-([1,2,4]triazolo[4,3-a]pyridin-7-yl)-3-isopropyl-1H-indol-5-yl)piperidin-1-yl)-N-methylacetamide], the IC50 on human TLR9 lay within 1000 to 50000 nM; on human TLR8 it was 100 to 1000 nM; against human TLR7, 100 to 1000 nM.
Take `Cc1cc(-c2[nH]c3ccc(C4CCN(CC(=O)N(C)C)CC4)cc3c2C(C)C)c(C)n2nnnc12` [Example 310, 2-(4-(2-(5,8-dimethyltetrazolo[1,5-a]pyridin-6-yl)-3-isopropyl-1H-indol-5-yl)piperidin-1-yl)-N,N-dimethylacetamide]: the IC50 against human TLR9 is 1000 to 50000 nM; at human TLR8, less than 100 nM; against human TLR7, less than 100 nM.

For orientation: IC50 means the concentration at which inhibition is half-maximal. Low readings indicate higher potency, high ones lower potency.

These data come from US11739098B2 (BRISTOL-MYERS SQUIBB COMPANY, priority 2017, dated 2023).
